Assay results: ChEMBL document CHEMBL3853343, “Discovery of novel 2',4'-dimethyl-[4,5'-bithiazol]-2-yl amino derivatives as orally bioavailable TRPV4 antagonists for the treatment of pain: Part 2” (Bioorg Med Chem Lett, 2016)
Values belong to the compound of their own block, whether it stands above or below them.

Columns and labels:
Rattus norvegicus [1] = test: Analgesic activity in rat assessed as reversal of complete Freund's adjuvant-induced mechanical hyperalgesia at 10 mg/kg, po after 1 hr relative to control; assay type: functional
[2] = Protein binding in rat; assay type: ADME; settings: read-out: PB
[3] = Protein binding in guinea pig; assay type: ADME, Cavia porcellus; settings: read-out: PB (converted)
Cytochrome P450 2C19 = Cytochrome P450 2C19 (Homo sapiens, UniProt P33261); test: Inhibition of CYP2C19 (unknown origin); assay type: ADME
[4] = Tmax in rat at 1 mg/kg, po; assay type: ADME, organism-based; settings: in vivo
[5] = Volume of distribution at steady state in guinea pig at 1 mg/kg, iv; assay type: ADME, organism-based, Cavia porcellus; settings: in vivo, read-out: Vdss
Cytochrome P450 2D6 = Cytochrome P450 2D6 (Homo sapiens, UniProt P10635); test: Inhibition of CYP2D6 (unknown origin); assay type: ADME
[6] = biological target: T1, Transient receptor potential cation channel subfamily V member 4 (Rattus norvegicus, UniProt Q9ERZ8); test: Antagonist activity at rat TRPV4 assessed as inhibition of 4alpha-PDD-induced activation
Salmonella typhimurium = test: Genotoxicity in Salmonella typhimurium by Ames test; assay type: toxicity, organism-based; settings: salmonella enterica subsp. enterica serovar typhimurium
[7] = Antagonist activity at guinea pig TRPV4 assessed as inhibition of hypotonicity-induced activation; set-up: species or system Cavia porcellus
Rattus norvegicus [8] = test: Analgesic activity in rat assessed as reversal of complete Freund's adjuvant-induced mechanical hyperalgesia at 30 mg/kg, po after 5 hrs relative to control; assay type: functional
[9] = Plasma concentration in Dunkin-Hartley guinea pig complete Freund's adjuvant-induced mechanical hyperalgesia model at 1 mg/kg, po after 5 hrs; assay type: ADME, organism-based, Cavia porcellus
[10] = Metabolic stability in human hepatocytes assessed as parent compound remaining after 1 hr; assay type: ADME, cell-based, Hepatocyte; settings: read-out: Stability
[11] = biological target: T1, Transient receptor potential cation channel subfamily V member 4; test: Antagonist activity at rat TRPV4 assessed as inhibition of hypotonicity-induced activation
Cytochrome P450 2C9 = Cytochrome P450 2C9 (Homo sapiens, UniProt P11712); test: Inhibition of CYP2C9 (unknown origin); assay type: ADME
Cavia porcellus [12] = test: Analgesic activity in Dunkin-Hartley guinea pig complete Freund's adjuvant-induced mechanical hyperalgesia model assessed as reversal in paw withdrawal threshold at 3 mg/kg, po after 5 hrs relative to control; assay type: functional
[13] = Cmax in guinea pig at 20 mg/kg, po measured 12 hrs post dose; assay type: ADME, organism-based, Cavia porcellus; set-up: dose 20 mg/kg, route oral; settings: in vivo
[14] = Stability in human liver microsomes assessed as parent compound remaining after 30 mins in presence or absence of NADPH; assay type: ADME, microsome; settings: read-out: Stability
[15] = Total clearance in guinea pig at 1 mg/kg, iv; assay type: ADME, organism-based, Cavia porcellus; settings: in vivo
[16] = Oral bioavailability in guinea pig at 20 mg/kg; assay type: ADME, organism-based, Cavia porcellus; settings: in vivo
[17] = Half life in rat at 0.5 mg/kg, iv; assay type: ADME, organism-based; settings: in vivo
[18] = Metabolic stability in rat hepatocytes assessed as parent compound remaining after 1 hr; assay type: ADME, cell-based, Hepatocyte; settings: read-out: Stability
Cavia porcellus [19] = test: Analgesic activity in Dunkin-Hartley guinea pig complete Freund's adjuvant-induced mechanical hyperalgesia model assessed as reversal in paw withdrawal threshold at 1 mg/kg, po after 5 hrs relative to control; assay type: functional
Cytochrome P450 1A2 = biological target: T2, Cytochrome P450 1A2 (Homo sapiens, UniProt P05177); test: Inhibition of CYP1A2 (unknown origin); assay type: ADME
T2 sequence (P05177 whole entry): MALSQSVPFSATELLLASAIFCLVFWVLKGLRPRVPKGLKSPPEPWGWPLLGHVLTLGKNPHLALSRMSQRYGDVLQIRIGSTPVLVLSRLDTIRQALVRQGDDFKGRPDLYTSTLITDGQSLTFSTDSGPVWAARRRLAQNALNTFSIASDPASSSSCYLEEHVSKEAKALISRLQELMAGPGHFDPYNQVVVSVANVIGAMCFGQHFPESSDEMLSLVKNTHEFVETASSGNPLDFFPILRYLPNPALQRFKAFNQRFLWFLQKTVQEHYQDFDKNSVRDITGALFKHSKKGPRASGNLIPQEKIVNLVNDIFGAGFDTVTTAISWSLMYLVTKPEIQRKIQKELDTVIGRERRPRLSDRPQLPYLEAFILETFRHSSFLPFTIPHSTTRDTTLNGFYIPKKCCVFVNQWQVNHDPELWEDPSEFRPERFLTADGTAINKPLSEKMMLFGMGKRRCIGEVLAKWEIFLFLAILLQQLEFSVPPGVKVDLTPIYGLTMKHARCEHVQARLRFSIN

Rattus norvegicus [20] = test: Analgesic activity in rat assessed as reversal of complete Freund's adjuvant-induced mechanical hyperalgesia at 10 mg/kg, po after 3 hrs relative to control; assay type: functional
[21] = Oral bioavailability in rat at 1 mg/kg; assay type: ADME, organism-based; settings: in vivo
[22] = Plasma concentration in Dunkin-Hartley guinea pig complete Freund's adjuvant-induced mechanical hyperalgesia model at 3 mg/kg, po after 5 hrs; assay type: ADME, organism-based, Cavia porcellus
[23] = Volume of distribution at steady state in rat at 0.5 mg/kg, iv; assay type: ADME, organism-based; settings: in vivo, read-out: Vdss
Rattus norvegicus [24] = test: Analgesic activity in rat assessed as reversal of complete Freund's adjuvant-induced mechanical hyperalgesia at 30 mg/kg, po after 3 hrs relative to control; assay type: functional
[25] = AUC in rat at 1 mg/kg, po; assay type: ADME, organism-based; settings: in vivo
[26] = Antagonist activity at guinea pig TRPV4 assessed as inhibition of 4alpha-PDD-induced activation; set-up: species or system Cavia porcellus
[27] = Total clearance in rat at 0.5 mg/kg, iv; assay type: ADME, organism-based; settings: in vivo
Cavia porcellus [28] = test: Analgesic activity in Dunkin-Hartley guinea pig complete Freund's adjuvant-induced mechanical hyperalgesia model assessed as reversal in paw withdrawal threshold at 10 mg/kg, po after 5 hrs relative to control; assay type: functional
[29] = Metabolic stability in guinea pig hepatocytes assessed as parent compound remaining after 1 hr; assay type: ADME, cell-based, Cavia porcellus, Hepatocyte; settings: read-out: Stability
Cytochrome P450 3A4 = Cytochrome P450 3A4 (Homo sapiens, UniProt P08684); test: Inhibition of CYP3A4 (unknown origin); assay type: ADME
[30] = Stability in rat liver microsomes assessed as parent compound remaining after 30 mins in presence or absence of NADPH; assay type: ADME, microsome; settings: read-out: Stability
[31] = Tmax in guinea pig at 20 mg/kg, po; assay type: ADME, organism-based, Cavia porcellus; settings: in vivo
[32] = Half life in guinea pig at 1 mg/kg, iv; assay type: ADME, organism-based, Cavia porcellus; settings: in vivo
Rattus norvegicus [33] = test: Analgesic activity in rat assessed as reversal of complete Freund's adjuvant-induced mechanical hyperalgesia at 10 mg/kg, po after 5 hrs relative to control; assay type: functional
[34] = Cmax in rat at 1 mg/kg, po; assay type: ADME, organism-based; set-up: dose 1 mg/kg, route oral; settings: in vivo
[35] = Protein binding in human; assay type: ADME; settings: read-out: PB
[36] = Plasma concentration in Dunkin-Hartley guinea pig complete Freund's adjuvant-induced mechanical hyperalgesia model at 10 mg/kg, po after 5 hrs; assay type: ADME, organism-based, Cavia porcellus
Rattus norvegicus [37] = test: Analgesic activity in rat assessed as reversal of complete Freund's adjuvant-induced mechanical hyperalgesia at 30 mg/kg, po after 1 hr relative to control; assay type: functional
[38] = AUC in guinea pig at 20 mg/kg, po; assay type: ADME, organism-based, Cavia porcellus; settings: in vivo
[39] = Selectivity ratio of IC50 for rat TRPV4 to IC50 for human TRPV4
[40] = biological target: Transient receptor potential cation channel subfamily V member 4 (Homo sapiens, UniProt Q9HBA0); test: Antagonist activity at human TRPV4 assessed as inhibition of 4alpha-PDD-induced activation
[41] = Ratio of free plasma concentration to IC50 for TRPV4 in guinea pig; assay type: ADME, cell-free, Cavia porcellus
[42] = Plasma concentration in po dosed Dunkin-Hartley guinea pig complete Freund's adjuvant-induced mechanical hyperalgesia model measured up to 6 hrs post dose; assay type: ADME, organism-based, Cavia porcellus
Cavia porcellus [43] = test: Analgesic activity in po dosed Dunkin-Hartley guinea pig complete Freund's adjuvant-induced mechanical hyperalgesia model assessed as reversal in paw withdrawal threshold measured up to 6 hrs post dose relative to control; assay type: functional

T1 sequence (Q9ERZ8 whole entry): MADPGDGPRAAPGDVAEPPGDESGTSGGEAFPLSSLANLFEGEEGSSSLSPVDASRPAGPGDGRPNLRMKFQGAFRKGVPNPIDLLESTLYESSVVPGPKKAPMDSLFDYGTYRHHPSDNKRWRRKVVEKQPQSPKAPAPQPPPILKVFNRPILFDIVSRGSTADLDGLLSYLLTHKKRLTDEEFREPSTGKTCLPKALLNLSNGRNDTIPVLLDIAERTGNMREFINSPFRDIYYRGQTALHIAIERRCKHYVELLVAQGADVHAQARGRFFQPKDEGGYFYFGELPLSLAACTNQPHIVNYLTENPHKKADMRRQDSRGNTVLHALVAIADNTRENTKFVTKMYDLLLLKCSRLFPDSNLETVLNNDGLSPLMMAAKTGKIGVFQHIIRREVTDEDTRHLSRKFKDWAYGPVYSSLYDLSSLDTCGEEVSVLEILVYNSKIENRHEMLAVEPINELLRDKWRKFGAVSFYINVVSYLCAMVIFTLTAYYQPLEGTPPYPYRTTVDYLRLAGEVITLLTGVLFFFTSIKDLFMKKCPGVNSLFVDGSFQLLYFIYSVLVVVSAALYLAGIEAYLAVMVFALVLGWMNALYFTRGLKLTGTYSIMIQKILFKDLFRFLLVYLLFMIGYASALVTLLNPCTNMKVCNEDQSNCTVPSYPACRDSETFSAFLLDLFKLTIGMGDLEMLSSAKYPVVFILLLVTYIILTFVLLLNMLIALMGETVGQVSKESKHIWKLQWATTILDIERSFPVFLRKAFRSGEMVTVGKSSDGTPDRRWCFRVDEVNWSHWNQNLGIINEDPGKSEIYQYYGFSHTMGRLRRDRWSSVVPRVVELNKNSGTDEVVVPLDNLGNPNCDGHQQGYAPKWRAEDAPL
Transient receptor potential cation channel subfamily V member 4 (Homo sapiens, UniProt Q9HBA0), sequence (Q9HBA0 whole entry): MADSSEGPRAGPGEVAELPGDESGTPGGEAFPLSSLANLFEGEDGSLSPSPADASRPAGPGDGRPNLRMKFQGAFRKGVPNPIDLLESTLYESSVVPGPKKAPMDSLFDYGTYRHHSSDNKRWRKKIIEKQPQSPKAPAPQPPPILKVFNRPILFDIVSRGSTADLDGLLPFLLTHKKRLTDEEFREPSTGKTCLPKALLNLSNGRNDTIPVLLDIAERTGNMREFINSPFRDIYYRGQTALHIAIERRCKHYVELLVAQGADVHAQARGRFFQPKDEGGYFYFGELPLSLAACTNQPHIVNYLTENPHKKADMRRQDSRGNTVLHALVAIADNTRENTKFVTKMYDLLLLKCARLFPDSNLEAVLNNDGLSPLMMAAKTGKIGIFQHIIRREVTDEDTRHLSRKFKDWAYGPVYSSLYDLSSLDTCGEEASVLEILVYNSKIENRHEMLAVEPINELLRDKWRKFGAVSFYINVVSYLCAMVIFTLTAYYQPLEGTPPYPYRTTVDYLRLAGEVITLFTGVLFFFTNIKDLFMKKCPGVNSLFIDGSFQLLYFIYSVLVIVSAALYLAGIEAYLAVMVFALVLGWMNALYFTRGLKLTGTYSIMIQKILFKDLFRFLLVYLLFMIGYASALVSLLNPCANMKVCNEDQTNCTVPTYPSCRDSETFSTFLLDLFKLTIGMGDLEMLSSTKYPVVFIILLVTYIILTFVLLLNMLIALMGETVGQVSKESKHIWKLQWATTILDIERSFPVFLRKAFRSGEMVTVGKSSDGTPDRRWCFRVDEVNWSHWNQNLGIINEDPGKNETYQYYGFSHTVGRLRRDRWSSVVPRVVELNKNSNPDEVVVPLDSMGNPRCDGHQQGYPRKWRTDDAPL
Cytochrome P450 2C9, sequence (P11712 whole entry): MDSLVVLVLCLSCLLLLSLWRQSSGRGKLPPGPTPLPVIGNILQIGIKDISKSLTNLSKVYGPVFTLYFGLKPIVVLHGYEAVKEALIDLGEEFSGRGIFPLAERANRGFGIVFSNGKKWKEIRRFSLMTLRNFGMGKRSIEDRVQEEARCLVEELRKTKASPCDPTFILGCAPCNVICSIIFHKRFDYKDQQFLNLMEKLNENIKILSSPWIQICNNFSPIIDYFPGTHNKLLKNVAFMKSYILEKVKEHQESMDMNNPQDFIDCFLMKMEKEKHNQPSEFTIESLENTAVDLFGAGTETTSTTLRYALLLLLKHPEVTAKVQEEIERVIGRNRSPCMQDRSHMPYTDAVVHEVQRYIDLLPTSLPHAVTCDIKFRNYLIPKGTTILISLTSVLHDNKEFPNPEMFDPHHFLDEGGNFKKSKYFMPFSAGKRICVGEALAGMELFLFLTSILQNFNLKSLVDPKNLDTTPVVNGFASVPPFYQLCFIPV
Cytochrome P450 2D6, sequence (P10635 whole entry): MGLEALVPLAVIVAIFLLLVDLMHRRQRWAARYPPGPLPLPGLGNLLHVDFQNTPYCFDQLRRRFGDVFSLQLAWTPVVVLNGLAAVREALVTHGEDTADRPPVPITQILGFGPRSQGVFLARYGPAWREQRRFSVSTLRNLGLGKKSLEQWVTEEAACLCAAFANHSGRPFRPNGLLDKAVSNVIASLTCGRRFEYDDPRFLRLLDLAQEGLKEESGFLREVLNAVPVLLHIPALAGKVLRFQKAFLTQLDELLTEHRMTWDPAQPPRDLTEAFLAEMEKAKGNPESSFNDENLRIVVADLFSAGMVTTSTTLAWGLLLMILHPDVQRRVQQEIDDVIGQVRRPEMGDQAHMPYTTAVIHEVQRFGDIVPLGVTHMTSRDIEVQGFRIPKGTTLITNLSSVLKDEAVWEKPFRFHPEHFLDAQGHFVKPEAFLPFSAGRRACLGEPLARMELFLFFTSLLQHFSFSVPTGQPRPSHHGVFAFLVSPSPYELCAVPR
Cytochrome P450 2C19, sequence (P33261 whole entry): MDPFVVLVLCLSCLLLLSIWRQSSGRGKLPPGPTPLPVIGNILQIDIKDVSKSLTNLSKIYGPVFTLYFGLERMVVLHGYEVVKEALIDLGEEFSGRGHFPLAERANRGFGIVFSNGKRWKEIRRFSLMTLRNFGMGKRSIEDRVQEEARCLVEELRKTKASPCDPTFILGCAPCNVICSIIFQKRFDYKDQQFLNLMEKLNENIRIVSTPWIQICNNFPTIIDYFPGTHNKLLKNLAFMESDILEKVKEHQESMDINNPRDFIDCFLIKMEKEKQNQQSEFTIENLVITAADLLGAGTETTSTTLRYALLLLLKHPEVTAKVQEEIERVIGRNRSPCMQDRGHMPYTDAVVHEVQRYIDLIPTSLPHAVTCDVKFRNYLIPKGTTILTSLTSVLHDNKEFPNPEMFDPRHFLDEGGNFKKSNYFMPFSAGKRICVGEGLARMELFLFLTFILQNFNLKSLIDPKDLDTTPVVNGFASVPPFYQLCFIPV
Cytochrome P450 3A4, sequence (P08684 whole entry): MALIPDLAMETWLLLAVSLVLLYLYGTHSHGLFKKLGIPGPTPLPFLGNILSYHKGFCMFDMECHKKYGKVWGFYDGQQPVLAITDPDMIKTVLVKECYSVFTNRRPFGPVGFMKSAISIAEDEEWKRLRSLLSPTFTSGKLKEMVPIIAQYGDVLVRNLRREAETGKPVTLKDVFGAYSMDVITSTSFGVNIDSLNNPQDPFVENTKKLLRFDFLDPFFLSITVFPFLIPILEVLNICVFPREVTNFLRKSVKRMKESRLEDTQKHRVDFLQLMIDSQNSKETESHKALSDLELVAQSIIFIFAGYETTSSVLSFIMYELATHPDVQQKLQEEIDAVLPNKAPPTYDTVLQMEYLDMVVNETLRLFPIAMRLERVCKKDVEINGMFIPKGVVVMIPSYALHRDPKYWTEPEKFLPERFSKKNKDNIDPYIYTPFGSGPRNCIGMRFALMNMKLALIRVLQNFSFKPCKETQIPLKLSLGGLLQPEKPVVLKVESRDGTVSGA

Structure (SMILES): Cc1nc(C)c(-c2csc(Nc3ccc(C(=O)N4C5CCC4CN(c4ncc(C(F)(F)F)cn4)C5)cn3)n2)s1
Activity (Rattus norvegicus [1]): 15.5% | fraction unbound [2]: < 0.001 | fraction unbound [3]: 0.003 | INH (Cytochrome P450 2C19): > 20 µM | Tmax [4]: 4 h | Vd [5]: 11 L/kg | INH (Cytochrome P450 2D6): > 20 µM | IC50 [6]: 0.0086 µM | Activity (Salmonella typhimurium): Non-Toxic | IC50 [7]: 0.0012 µM | Activity (Rattus norvegicus [8]): 23.5% | concentration at 5 h [9]: 21.2 ng/mL | remaining at 1 h [10]: 91% | IC50 [11]: 0.0021 µM | INH (Cytochrome P450 2C9): > 20 µM | Activity (Cavia porcellus [12]): 30.6% | Cmax [13]: 256 ng/mL | remaining at 0.5 h [14]: 94.8% | clearance [15]: 31.1 mL/min/kg | bioavailability [16]: 44% | half-life [17]: 8.1 h | remaining at 1 h [18]: 105% | Activity (Cavia porcellus [19]): 15.6% | INH (Cytochrome P450 1A2): > 20 µM | Activity (Rattus norvegicus [20]): 21.3% | bioavailability [21]: 37.9% | concentration at 5 h [22]: 69.4 ng/mL | Vd [23]: 4.6 L/kg | Activity (Rattus norvegicus [24]): 29.7% | AUC [25]: 900 ng·h/mL | IC50 [26]: 0.0009 µM | clearance [27]: 7.22 mL/min/kg | Activity (Cavia porcellus [28]): 43.4% | remaining at 1 h [29]: 73% | INH (Cytochrome P450 3A4): > 20 µM | remaining at 0.5 h [30]: 69.2% | Tmax [31]: 12 h | half-life [32]: 4.2 h | Activity (Rattus norvegicus [33]): 11% | Cmax [34]: 55.2 ng/mL | fraction unbound [35]: < 0.001 | concentration at 5 h [36]: 209 ng/mL | Activity (Rattus norvegicus [37]): 22% | AUC [38]: 4720 ng·h/mL

Structure (SMILES): COc1ccc2c(c1)c(CC(=O)O)c(C)n2C(=O)c1ccc(Cl)cc1 [INDOMETHACIN]
Activity (Rattus norvegicus [8]): 6.1% | Activity (Rattus norvegicus [37]): 11.4%

Structure (SMILES): Cc1nc(C)c(-c2csc(Nc3ccc(C(=O)N4C5CCC4CN(c4ccc(Cl)cc4)C5)cn3)n2)s1
IC50 [6]: 0.41 µM | remaining at 0.5 h [14]: 72.6% | IC50 [26]: 0.0088 µM | remaining at 0.5 h [30]: 68.3% | IC50 [40]: 0.0032 µM

More lines, main results first:

Ratio IC50 [39]: 15 | IC50 [6]: 0.36 µM | IC50 [26]: 0.045 µM | IC50 [40]: 0.024 µM
Structure (SMILES): Cc1nc(C)c(-c2csc(Nc3ccc(C(=O)N4C5CCC4CC(=O)C5)cn3)n2)s1

fraction unbound [3]: 0.1 | Ratio IC50 [39]: 42 | Ratio [41]: 1.9 | IC50 [6]: 0.8 µM | IC50 [26]: 0.027 µM | concentration at 6 h [42]: 515 ng/mL | IC50 [40]: 0.019 µM
Structure (SMILES): Cc1nc(C)c(-c2csc(Nc3ccc(C(=O)N4C5COCC4CC(=O)C5)cn3)n2)s1
Activity (Cavia porcellus [43]): 30.8%

IC50 [6]: 0.02 µM | remaining at 0.5 h [14]: 72.7% | IC50 [26]: 0.0007 µM | remaining at 0.5 h [30]: 89% | IC50 [40]: 0.0009 µM
Structure (SMILES): Cc1nc(C)c(-c2csc(Nc3ccc(C(=O)N4C5CCC4CN(c4ccc(Cl)cn4)C5)cn3)n2)s1
